One series deals with MRC5 cells. In words: Cell viability assay in MRC5 cells (MTT).
A further series can be described thus: PAMPA permeability assay. Type of series: in vitro ADME. Particulars: for recovery at 5 hr, 10 μM / Papp at 5 hr, 10 μM: pH 7, PAMPA; for Papp at 5 hr, 10 μM: pH 7, 10 μM.
Another series concerns the target PDGFRβ (Homo sapiens (Human), UniProt P09619). In words: PDGF-BB induced phosphorylation of PDGFRβ in fibroblasts (MRC5, HTRF). Type of series: cell-based. Particulars: MRC5 cells, PDGFBB stimulation; read-out: PDGFBB-induced PDGFRβ phosphorylation in MRC5 cells (IC50).
A short description of series [1]: Pharmacokinetic measurements in rats (i.v., i.t., oral). Type of series: in vivo. Conditions: rat; for concentration at 0.1 h / concentration at 1.5 h / concentration at 24 h: lung; for concentration at 0.1 h: read-out: lung concentration (nM) at time 0.1 h; for concentration at 1.5 h: read-out: lung concentration (nM) at time 1.5 h; for concentration at 24 h: read-out: lung concentration (nM) at time 24 h.

Where [2] appears, read: male, CD, other: intra-tracheal.
[3] abbreviates: i.t. dose 0.1 (nintedanib 0.42).
Where [4] appears, read: i.v. dose 0.1 (nintedanib 0.42).

Where a name gives a salt, the structure may show the parent alone. Read-outs that look alike come from different tables or passages of the source.

The values that follow come from patent US10669235B2, “Indole derivatives and their use as protein kinase inhibitors” (RESPIVERT LIMITED, priority 2016, dated 2020).

PDGFRβ, sequence (P09619 33-1106): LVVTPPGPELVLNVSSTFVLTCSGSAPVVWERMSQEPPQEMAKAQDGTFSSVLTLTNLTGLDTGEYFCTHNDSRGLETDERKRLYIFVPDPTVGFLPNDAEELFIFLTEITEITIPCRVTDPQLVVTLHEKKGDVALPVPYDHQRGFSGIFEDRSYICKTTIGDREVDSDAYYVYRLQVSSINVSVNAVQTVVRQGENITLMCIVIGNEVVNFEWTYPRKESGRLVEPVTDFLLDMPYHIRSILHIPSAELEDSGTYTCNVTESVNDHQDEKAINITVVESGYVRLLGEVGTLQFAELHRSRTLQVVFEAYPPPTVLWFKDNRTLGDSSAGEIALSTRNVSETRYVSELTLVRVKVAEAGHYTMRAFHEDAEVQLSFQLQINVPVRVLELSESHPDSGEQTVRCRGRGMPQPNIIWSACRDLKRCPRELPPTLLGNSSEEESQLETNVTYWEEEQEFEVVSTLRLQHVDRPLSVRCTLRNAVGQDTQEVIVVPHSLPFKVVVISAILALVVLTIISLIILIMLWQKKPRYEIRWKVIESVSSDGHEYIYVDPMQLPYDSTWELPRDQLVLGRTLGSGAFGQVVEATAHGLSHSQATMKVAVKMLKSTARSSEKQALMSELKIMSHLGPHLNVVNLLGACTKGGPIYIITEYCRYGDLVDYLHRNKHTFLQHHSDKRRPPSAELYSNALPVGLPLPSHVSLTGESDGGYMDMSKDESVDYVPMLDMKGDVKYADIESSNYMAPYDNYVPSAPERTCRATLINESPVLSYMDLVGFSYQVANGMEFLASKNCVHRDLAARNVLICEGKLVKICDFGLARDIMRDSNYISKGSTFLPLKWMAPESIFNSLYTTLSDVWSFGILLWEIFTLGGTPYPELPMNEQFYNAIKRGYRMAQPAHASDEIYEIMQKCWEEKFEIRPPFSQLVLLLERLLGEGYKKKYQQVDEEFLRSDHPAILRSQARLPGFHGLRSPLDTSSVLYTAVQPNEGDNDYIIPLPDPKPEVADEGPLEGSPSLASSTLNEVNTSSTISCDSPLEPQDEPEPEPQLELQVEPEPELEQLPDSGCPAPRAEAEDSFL

In the case of `COC(=O)c1cc2c(cc1C)/C(=C(/Nc1ccc(C(=O)NCC(=O)N3CCN(C)CC3)cc1)c1ccccc1)C(=O)N2` [Example 8, (Z)-Methyl 5-methyl-3-(((4-((2-(4-methylpiperazin-1-yl)-2-oxoethyl)carbamoyl)phenyl)amino) (phenyl)methylene)-2-oxoindoline-6-carboxylate, 0.5 formate], in the series with MRC5 cells, the “Cell viability at 100 nM (%)” value turned out to be 110.4%, the “Cell viability at 300 nM (%)” value came out at 108.2% and the “Cell viability at 1000 nM (%)” value is on record as 77.7%. For the same compound, in the series “PAMPA permeability assay”, the recovery at 5 hr, 10 μM is 87.8% and the Papp at 5 hr, 10 μM came out at 1.56 nm/s. Further, at PDGFRβ, the IC50 turned out to be 12 nM.
`COC(=O)c1cc2c(cc1C)/C(=C(/Nc1ccc(C(=O)N3CCN(CC(=O)NCCO)CC3)cc1)c1ccccc1)C(=O)N2` [Example 15, (Z)-Methyl 3-(((4-(4-(2-((2-hydroxyethyl)amino)-2-oxoethyl)piperazine-1-carbonyl)phenyl)amino) (phenyl)methylene)-5-methyl-2-oxoindoline-6-carboxylate]: in the series on MRC5 cells, the “Cell viability at 100 nM (%)” value was determined as 91.3%, the “Cell viability at 300 nM (%)” value came out at 109.9% and the “Cell viability at 1000 nM (%)” value is given as 85.6%.
As to `COC(=O)c1cc2c(cc1C)/C(=C(/Nc1ccc(S(=O)(=O)NCCN3CCN(C)CC3)cc1)c1ccccc1)C(=O)N2` [Example 1, (Z)-Methyl 5-methyl-3-(((4-(N-(2-(4-methylpiperazin-1-yl)ethyl)sulfamoyl)phenyl)amino)(phenyl)methylene)-2-oxoindoline-6-carboxylate, 0.8 formate], in the series with MRC5 cells, the “Cell viability at 100 nM (%)” value is listed as 103.6%, the “Cell viability at 300 nM (%)” value is recorded as 89% and the “Cell viability at 1000 nM (%)” value stood at 68.7%. Moreover, in “PAMPA permeability assay”, the recovery at 5 hr, 10 μM amounted to 92% and the apparent permeability coefficient (Papp) at 5 hr, 10 μM was determined as 1.23 nm/s. Further, the IC50 on PDGFRβ came out at 25.6 nM.
`COC(=O)c1cc2c(cc1C)/C(=C(/Nc1ccc(C(=O)NCCN(C)CCO)cc1)c1ccccc1)C(=O)N2` [Example 51, (Z)-Methyl 3-(((4-((2-((2-hydroxyethyl)(methyl)amino)ethyl)carbamoyl)phenyl)amino)(phenyl)methylene)-5-methyl-2-oxoindoline-6-carboxylate]: in the series with MRC5 cells, the “Cell viability at 100 nM (%)” value is 113%, the “Cell viability at 300 nM (%)” value stood at 95.5% and the “Cell viability at 1000 nM (%)” value turned out to be 83.8%. Further, the IC50 at PDGFRβ stood at 6.71 nM.
Turning to `COC(=O)c1cc2c(cc1C)/C(=C(/Nc1ccc(C(=O)NCC3CCN(CCO)CC3)cc1)c1ccccc1)C(=O)N2` [Example 50, (Z)-Methyl 3-(((4-(((1-(2-hydroxyethyl)piperidin-4-yl)methyl)carbamoyl)phenyl)amino)(phenyl)methylene)-5-methyl-2-oxoindoline-6-carboxylate], in the series on MRC5 cells, the “Cell viability at 100 nM (%)” value is given as 116.2%, the “Cell viability at 300 nM (%)” value came out at 107.9% and the “Cell viability at 1000 nM (%)” value is listed as 61.0%.
For `COC(=O)c1ccc2c(c1)NC(=O)/C2=C(\Nc1ccc(N(C)C(=O)CN2CCN(C)CC2)cc1)c1ccccc1` [Nintedanib, reference compound], in the series on MRC5 cells, the “Cell viability at 100 nM (%)” value is recorded as 104.6%, the “Cell viability at 300 nM (%)” value is 105.6% and the “Cell viability at 1000 nM (%)” value came to 92.7%. For the same compound, in series [1] (male, CD, iv), the concentration at 0.1 h came out at 2300 nM, the concentration at 1.5 h worked out at 1390 nM and the concentration at 24 h turned out to be 66 nM. Also, in series [1] (setting [2]), the concentration at 0.1 h worked out at 12400 nM, the concentration at 1.5 h came out at 7700 nM and the concentration at 24 h turned out to be 152 nM. In addition, in series [1] (male, CD, plasma, iv), the MRT was 3.8 h, the clearance came out at 7.44 L/h/kg and the half-life was 3.9 h. The Vd in series [1] (male, CD, plasma, iv, read-out: Vss) worked out at 28 L/kg. In addition, in series [1] (setting [3]), the “i.t. BAV (%)” value amounted to 43%, the “BAL % administered dose at time 0.1 h” value was 2%, the “BAL % administered dose at time 1.5 h” value is recorded as 1% and the “BAL % administered dose at time 24 h” value is 0.1%. Also, in series [1] (setting [4]), the “BAL % administered dose at time 0.1 h” value came to 0.06%, the “BAL % administered dose at time 1.5 h” value was 0.03% and the “BAL % administered dose at time 24 h” value was “BQL”. In “PAMPA permeability assay”, the “% Recovery” value is recorded as 64.0% and the recovery at 5 hr, 10 μM stood at 83.5%.
Turning to `COC(=O)c1cc2c(cc1C)/C(=C(/Nc1ccc(C(=O)NCC3CCN(CCO)CC3)cc1)c1ccccc1)C(=O)N2` [Example 14, (Z)-Methyl 3-(((4-(((1-(2-hydroxyethyl)piperidin-4-yl)methyl)carbamoyl)phenyl)amino) (phenyl)methylene)-5-methyl-2-oxoindoline-6-carboxylate], in the series on MRC5 cells, the “Cell viability at 100 nM (%)” value is reported as 116.2%, the “Cell viability at 300 nM (%)” value stood at 107.9% and the “Cell viability at 1000 nM (%)” value is 61%.
Consider `COC(=O)c1cc2c(cc1C)/C(=C(/Nc1ccc(C(=O)NCCN3CCS(=O)(=O)CC3)cc1)c1ccccc1)C(=O)N2` [Example 52, (Z)-Methyl 3-(((4-((2-(1,1-dioxidothiomorpholino)ethyl)carbamoyl)phenyl)amino)(phenyl)methylene)-5-methyl-2-oxoindoline-6-carboxylate], for which, in the series with MRC5 cells, the “Cell viability at 100 nM (%)” value is 81.3%, the “Cell viability at 300 nM (%)” value was 81.2% and the “Cell viability at 1000 nM (%)” value was 85.9%. The 50% inhibitory concentration (IC50) on PDGFRβ was 5.49 nM.
In the case of `COC(=O)c1cc2c(cc1C)/C(=C(/Nc1ccc(C(=O)NCCN3CCNC(=O)CC3)cc1)c1ccccc1)C(=O)N2` [Example 53, (Z)-Methyl 5-methyl-2-oxo-3-(((4-((2-(5-oxo-1,4-diazepan-1-yl)ethyl)carbamoyl)phenyl)amino)(phenyl)methylene)indoline-6-carboxylate], in the series with MRC5 cells, the “Cell viability at 100 nM (%)” value turned out to be 89.1%, the “Cell viability at 300 nM (%)” value is 92.9% and the “Cell viability at 1000 nM (%)” value amounted to 95.3%. Besides, the IC50 at PDGFRβ was found to be 6.5 nM.
In the case of `COC(=O)c1cc2c(cc1C)/C(=C(/Nc1ccc(C(=O)NC3CCN(CCO)CC3)cc1)c1ccccc1)C(=O)N2` [Example 49, (Z)-Methyl 3-(((4-((1-(2-hydroxyethyl)piperidin-4-yl)carbamoyl)phenyl)amino)(phenyl)methylene)-5-methyl-2-oxoindoline-6-carboxylate], the IC50 on PDGFRβ was 1.25 nM.
As for `COC(=O)c1cc2c(cc1C)/C(=C(/Nc1ccc(C(=O)NCCN3CCC(O)CC3)cc1)c1ccccc1)C(=O)N2` [Example 12, (Z)-Methyl 3-(((4-((2-(4-hydroxypiperidin-1-yl)ethyl)carbamoyl)phenyl)amino)(phenyl)methylene)-5-methyl-2-oxoindoline-6-carboxylate, 0.8 formate], in the series with MRC5 cells, the “Cell viability at 100 nM (%)” value came to 92.2%, the “Cell viability at 300 nM (%)” value was 105.5% and the “Cell viability at 1000 nM (%)” value is recorded as 93.4%. In “PAMPA permeability assay”, this compound displayed a recovery at 5 hr, 10 μM of 87.7% and a Papp at 5 hr, 10 μM of 0.0638 nm/s. The half-inhibitory concentration (IC50) on PDGFRβ was found to be 4.23 nM.
